# Marks after values point to notes of the source that are not given here.
# Test system: hypertensive subjects
# Experiment: Seated automated office blood pressure (AOBP) in randomized, placebo-controlled, dose-ranging study
# Assay type: in vivo, human
# Design: Difference from placebo in change in blood pressure: unit not given here
# Experimental: A randomized, double-blinded, placebo-controlled, dose-ranging, multicenter study was conducted to evaluate the effect of orally administered Compound A HBr on blood pressure for the treatment of hypertension in male and female subjects ≥18 years of age.
# The study consists of two parts. For enrollment into Part 1 of the study, a subject's value of plasma renin activity (PRA) must be ≤1 ng/mL/h based on morning measurement. If the value of PRA >1 ng/mL/h based on morning measurement, then subjects may be eligible to enter Part 2 of the study.
# For Part 1, 163 enrolled subjects ≥18 years of age were randomized into 6 equal treatment groups (1:1:1:1:1:1) to 12.5 mg BID, 25 mg BID, 12.5 mg QD, 50 mg QD, 100 mg QD, or placebo. After a review of interim clinical data, the 2 lowest dose levels (12.5 mg QD and 12.5 mg BID) were stopped for future randomization due to a lack of consistent meaningful reduction of blood pressure, but the patients randomized to that point remained in the study through completion. Thus, after the review of interim clinical data, subjects were randomized into 4 equal treatment groups (1:1:1:1) to 25 mg BID, 50 mg QD, 100 mg QD, or placebo.
# For Part 2, 36 enrolled subjects ≥18 years of age were randomized (5:1) to either 100 mg QD Compound A HBr or placebo such that the Compound A HBr treatment group consisted of approximately 30 subjects and the placebo treatment group will consist of approximately 6 subjects.
# Subjects orally administered the assigned study drug (Compound A HBr or placebo) according to the assigned dosing regimen for 8 weeks beginning on Study Day 1. All subjects in Part 1 (regardless of dosing group) received BID dosing to preserve the integrity of the blind; active drug is administered as the morning dose for all QD dose groups. Subjects returned to the research facility or were seen by the clinical investigator or approved home health care professional at the end of Study Weeks 1, 2, 3, 4, 5, 6, 7, and 8 (±2 days) for protocol-defined efficacy and safety assessments and procedures, assessment of adverse events (AEs), and confirmation of compliance with study drug usage. Subjects also completed a telephone visit and blood pressure (BP) check at home approximately 3 days post last dose of study drug. Subjects attended up to 14 full clinic visits, including a pre-Screening visit, a Screening/start of Placebo Run-in visit, a second visit during Placebo Run-in, a clinic visit to initiate the ABPM procedure, a Randomization visit, 8 weekly visits during double-blind treatment, and an end-of-study visit scheduled 4 weeks after the last study treatment for final efficacy and safety assessments.
# An automated oscillometric sphygmomanometer device was used to measure the subjects' systolic and diastolic blood pressure in office after approximately 5 minutes of rest in the seated position.
# The primary endpoint is the change in office-measured (mean of last 2 of 5 unattended measurements using an automated oscillometric sphygmomanometer device after approximately 5 minutes of rest in the seated position) systolic blood pressure (SBP) from baseline to the end of Study Week 8.
# Secondary endpoints of this study were: • (a) Change in 24-hour ambulatory blood pressure monitoring (ABPM) parameters (systolic and diastolic) from baseline to the end of Study Week 7. • (b) Change in office-measured SBP from baseline to the end of Study Weeks 1, 2, 3, 4, 5, 6, and 7. • (c) Change in office-measured diastolic blood pressure (DBP) from baseline to the end of Study Weeks 1, 2, 3, 4, 5, 6, 7, and 8. • (d) Proportion of subjects who achieve office-measured BP of ≤130/80 mm Hg by the end of Study Week 8.
# [1] = 100 mg QD Part 1, Week 8, Parts 1 & 2 model, FAS
compound,measurement,setting,value
CC(=O)N[C@H]1CC[C@H](NC(=O)CN2CCN(c3nncc(-c4ccc(C)cc4)n3)CC2)CC1 [Compound A HBr],"Placebo-adjusted reduction in AOBP SBP, concomitant use of thiazide diuretics","50 mg QD, Part 1, Week 8",−12.9 mmHg
same,Difference from placebo in change in blood pressure,"50 mg QD, Thiazide No",−4.3
same,Difference from placebo in change in blood pressure,"50 mg QD, Thiazide Yes",−13.2*
same,"Seated AOBP DBP change from baseline (CFB), Mean (SD)","50 mg QD, Week 1, Part 1, FAS",−4.34 (8.86) mmHg
same,"Seated AOBP DBP, Mean (SD)","50 mg QD, Week 1, Part 1, FAS",80.54 (7.58) mmHg
same,"Seated AOBP SBP change from baseline (CFB), Mean (SD)","50 mg QD, Week 1, Part 1, FAS",−8.32 (14.27) mmHg
same,"Seated AOBP SBP, Mean (SD)","50 mg QD, Week 1, Part 1, FAS",133.50 (12.23) mmHg
same,"Seated AOBP DBP change from baseline (CFB), Mean (SD)","50 mg QD, Week 2, Part 1, FAS",−5.91 (7.38) mmHg
same,"Seated AOBP DBP, Mean (SD)","50 mg QD, Week 2, Part 1, FAS",78.96 (8.27) mmHg
same,"Seated AOBP SBP change from baseline (CFB), Mean (SD)","50 mg QD, Week 2, Part 1, FAS",−9.54 (13.78) mmHg
same,"Seated AOBP SBP, Mean (SD)","50 mg QD, Week 2, Part 1, FAS",132.29 (10.55) mmHg
same,"Seated AOBP DBP change from baseline (CFB), Mean (SD)","50 mg QD, Week 3, Part 1, FAS",−3.84 (8.83) mmHg
same,"Seated AOBP DBP, Mean (SD)","50 mg QD, Week 3, Part 1, FAS",81.04 (9.15) mmHg
same,"Seated AOBP SBP change from baseline (CFB), Mean (SD)","50 mg QD, Week 3, Part 1, FAS",−9.50 (16.67) mmHg
same,"Seated AOBP SBP, Mean (SD)","50 mg QD, Week 3, Part 1, FAS",132.32 (13.45) mmHg
same,"LSM Δ with Placebo, seated AOBP DBP (MMRM)","50 mg QD, Week 4, Part 1, FAS",−3.95 mmHg
same,"Modelled (MMRM) LSM (SEM) change from baseline, seated AOBP DBP","50 mg QD, Week 4, Part 1, FAS",−4.49 (1.41) mmHg
same,"Seated AOBP DBP change from baseline (CFB), Mean (SD)","50 mg QD, Week 4, Part 1, FAS",−5.30 (8.33) mmHg
same,"Seated AOBP DBP, Mean (SD)","50 mg QD, Week 4, Part 1, FAS",79.57 (8.36) mmHg
same,"Seated AOBP SBP change from baseline (CFB), Mean (SD)","50 mg QD, Week 4, Part 1, FAS",−9.07 (15.77) mmHg
same,"Seated AOBP SBP, Mean (SD)","50 mg QD, Week 4, Part 1, FAS",132.75 (11.85) mmHg
same,"Seated AOBP DBP change from baseline (CFB), Mean (SD)","50 mg QD, Week 5, Part 1, FAS",−6.10 (7.22) mmHg
same,"Seated AOBP DBP, Mean (SD)","50 mg QD, Week 5, Part 1, FAS",78.58 (7.53) mmHg
same,"Seated AOBP SBP change from baseline (CFB), Mean (SD)","50 mg QD, Week 5, Part 1, FAS",−8.38 (15.19) mmHg
same,"Seated AOBP SBP, Mean (SD)","50 mg QD, Week 5, Part 1, FAS",134.27 (15.39) mmHg
same,"Seated AOBP DBP change from baseline (CFB), Mean (SD)","50 mg QD, Week 6, Part 1, FAS",−6.26 (8.48) mmHg
same,"Seated AOBP DBP, Mean (SD)","50 mg QD, Week 6, Part 1, FAS",78.63 (8.17) mmHg
same,"Seated AOBP SBP change from baseline (CFB), Mean (SD)","50 mg QD, Week 6, Part 1, FAS",−10.72 (14.86) mmHg
same,"Seated AOBP SBP, Mean (SD)","50 mg QD, Week 6, Part 1, FAS",131.11 (12.49) mmHg
same,"Seated AOBP DBP change from baseline (CFB), Mean (SD)","50 mg QD, Week 7, Part 1, FAS",−3.75 (11.03) mmHg
same,"Seated AOBP DBP, Mean (SD)","50 mg QD, Week 7, Part 1, FAS",80.88 (11.41) mmHg
same,"Seated AOBP SBP change from baseline (CFB), Mean (SD)","50 mg QD, Week 7, Part 1, FAS",−7.69 (18.91) mmHg
same,"Seated AOBP SBP, Mean (SD)","50 mg QD, Week 7, Part 1, FAS",133.19 (16.39) mmHg
same,"LSM Δ from Placebo, change from baseline in seated AOBP SBP (MMRM)","50 mg QD, Week 8, Part 1, FAS",−9.58 mmHg
same,"LSM Δ with Placebo, seated AOBP DBP (MMRM)","50 mg QD, Week 8, Part 1, FAS",−5.46 mmHg
same,"Modelled (MMRM) LSM (SEM) change from baseline, seated AOBP DBP","50 mg QD, Week 8, Part 1, FAS",−7.09 (1.70) mmHg
same,"Modelled (MMRM) LSM (SEM) change from baseline, seated AOBP SBP","50 mg QD, Week 8, Part 1, FAS",−13.69 (2.67) mmHg
same,"Seated AOBP DBP change from baseline (CFB), Mean (SD)","50 mg QD, Week 8, Part 1, FAS",−8.05 (9.13) mmHg
same,"Seated AOBP DBP, Mean (SD)","50 mg QD, Week 8, Part 1, FAS",76.82 (9.82) mmHg
same,"Seated AOBP SBP change from baseline (CFB), Mean (SD)","50 mg QD, Week 8, Part 1, FAS",−13.18 (17.17) mmHg
same,"Seated AOBP SBP, Mean (SD)","50 mg QD, Week 8, Part 1, FAS",128.64 (13.69) mmHg
same,Subjects with seated AOBP SBP/DBP ≤130/80 mmHg: No,"50 mg QD, Week 8, Part 1, FAS",16 (57.1) n (%)
same,Subjects with seated AOBP SBP/DBP ≤130/80 mmHg: Yes,"50 mg QD, Week 8, Part 1, FAS",12 (42.9) n (%)
same,"Modelled (MMRM) LSM (SEM) change from baseline, seated AOBP DBP","100 mg QD Part 1, Week 4, Parts 1 & 2 model, FAS",−5.88 (1.49) mmHg
same,"Modelled (MMRM) LSM (SEM) change from baseline, seated AOBP DBP",[1],−4.57 (1.53) mmHg
same,"Modelled (MMRM) LSM (SEM) change from baseline, seated AOBP SBP",[1],−12.08 (2.68) mmHg

# Reference: patent US20260053811A1, “METHODS OF TREATING HYPERTENSION IN OBESE SUBJECTS” (Mineralys Therapeutics, Inc., priority 2022, published 2026)
